The record followed here is ChEMBL document CHEMBL1201862, “PubChem BioAssay data set” (2004).

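Briefly, cells in 96-well plates were exposed to five compound concentrations for 48 h, and endpoints were estimated by linear interpolation. Abbreviation: GI50, concentration required for 50% inhibition of growth.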 Activity calls are given as the source filed them. Rule as the data show it: active = GI50 up to about 1.1 µM and inactive = higher.

Test systems include A549; COLO 205; EKVX; HCC 2998; HCT-15; IGROV-1; K562; KM12; LOX IMVI; MDA-MB-231; MDA-MB-435; NCI-H226; NCI-H460; OVCAR-4; OVCAR-5; SF-268; SF-295; SK-MEL-28; SK-OV-3; SN12C.
Test in all cases: NCI-60 cell line screen, 48 h

As for `O=C(NCCN(CCNC(=O)c1cccc(O)c1O)CCNC(=O)c1cccc(O)c1O)c1cccc(O)c1O` [TRENCAM], the GI50 is 15 µM (inactive) in the assay with A549; 5.15 µM (inactive) with COLO 205; 41.4 µM (inactive) with EKVX; 3.4 µM (inactive) in the assay on HCC 2998; 10.4 µM with HCT-15; 4.73 µM (inactive) in the assay with IGROV-1. Further, the GI50 in the assay with K562 is 5.28 µM (inactive); with KM12, 4.4 µM (inactive); in the assay with LOX IMVI, 1.22 µM (inactive); in the assay on MDA-MB-231, 6.07 µM (inactive); with MDA-MB-435, 21.7 µM (inactive); in the assay with NCI-H226, 14.8 µM (inactive). Besides, the GI50 in the assay with NCI-H460 was 4.38 µM (inactive); in the assay on OVCAR-4 it was 0.578 µM (active); in the assay with OVCAR-5 it was 66.2 µM (inactive); in the assay on SF-268 it was 2.06 µM (inactive); in the assay on SF-295 it was 25.4 µM (inactive); with SK-MEL-28, 3.82 µM (inactive). Further, the GI50 in the assay on SK-OV-3 was 16.7 µM (inactive); in the assay with SN12C, 8.55 µM (inactive).
